Each block holds one compound with its values, some of them ahead of it.
Assays:
human Nav1.1 = target: T1, human Nav1.1 (Homo sapiens, UniProt P35498); experiment: Amplification of Nav1.1-derived voltage-dependent sodium current (Nav1.1 current), cell line stably expressing human Nav1.1, automated patch clamp; type: cell-based; conditions: for activation at 10 µM / activation at 1 µM / activation at 3 µM: read-out: Nav1.1 current amplification rate (%)
T1 construct: host or cells: HEK293
Outline: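 Automated whole-cell voltage-clamp recordings used HEK293 cells stably expressing human Nav1.1, keeping only cells with >500 pA current, with currents evoked by ramp voltage. Compounds were applied in extracellular fluid with 1% DMSO, and amplification (%) was computed from peak current or AUC after versus before addition.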

human Nav1.5 = target: T2, human Nav1.5 (Homo sapiens, UniProt Q14524); experiment: Amplification of Nav1.5-derived voltage-dependent sodium current (Nav1.5 current), cell line stably expressing human Nav1.5, automated patch clamp; type: cell-based; conditions: for activation at 10 µM / activation at 1 µM / activation at 3 µM: read-out: Nav1.5 current amplification rate (%)
T2 construct: expressed in transfected cells; host or cells: CHO-K1 (T-REx System, ThermoFisher Scientific)
Protocol: Test 2: Evaluation of the Amplification in Nav1.5-Derived Voltage-Dependent Sodium Current (Nav1.5 Current) by Using a Cell Line Stably Expressing Human Nav1.5
A CHO-K1 cell line (Chinese hamster ovary) stably expressing human Nav1.5 (Gene Bank Accession No: P000326.2) was obtained by using purchased T-Rex System (ThermoFisher Scientific, USA), and used for the present test. The effect of test compounds on the amplification of Nav1.5 current was evaluated by using a cell line stably expressing human Nav1.5 and HTS automated patch clamp system, similarly in the method using Nav1.1. In other words, test compounds were added in an extracellular fluid which contained 1% DMSO and 500 nmol/L Tetrodotoxin (TTX), and evaluated as a change of the peak value of Nav1.5 current and the area under the curve (AUC). The induction and the measurement of Nav1.5 current, the pharmacologic effect on Nav1.5 current, and a method for pharmacological evaluation were carried out by the same method as in Nav1.1.

[1] = 10 μmol/L compound, change of the area under the curve of Nav1.1 current (Test Result 1)
[2] = 10 μmol/L compound, change of the area under the curve of Nav1.5 current (Test Result 1)
[3] = compound 3 μmol/L, HEK293 stably expressing human Nav1.1
[4] = compound 3 μmol/L, CHO-K1 stably expressing human Nav1.5
[5] = compound 1 μmol/L, HEK293 stably expressing human Nav1.1
[6] = compound 1 μmol/L, CHO-K1 stably expressing human Nav1.5

T2 sequence (Q14524 1-2015 isoform Q14524-2): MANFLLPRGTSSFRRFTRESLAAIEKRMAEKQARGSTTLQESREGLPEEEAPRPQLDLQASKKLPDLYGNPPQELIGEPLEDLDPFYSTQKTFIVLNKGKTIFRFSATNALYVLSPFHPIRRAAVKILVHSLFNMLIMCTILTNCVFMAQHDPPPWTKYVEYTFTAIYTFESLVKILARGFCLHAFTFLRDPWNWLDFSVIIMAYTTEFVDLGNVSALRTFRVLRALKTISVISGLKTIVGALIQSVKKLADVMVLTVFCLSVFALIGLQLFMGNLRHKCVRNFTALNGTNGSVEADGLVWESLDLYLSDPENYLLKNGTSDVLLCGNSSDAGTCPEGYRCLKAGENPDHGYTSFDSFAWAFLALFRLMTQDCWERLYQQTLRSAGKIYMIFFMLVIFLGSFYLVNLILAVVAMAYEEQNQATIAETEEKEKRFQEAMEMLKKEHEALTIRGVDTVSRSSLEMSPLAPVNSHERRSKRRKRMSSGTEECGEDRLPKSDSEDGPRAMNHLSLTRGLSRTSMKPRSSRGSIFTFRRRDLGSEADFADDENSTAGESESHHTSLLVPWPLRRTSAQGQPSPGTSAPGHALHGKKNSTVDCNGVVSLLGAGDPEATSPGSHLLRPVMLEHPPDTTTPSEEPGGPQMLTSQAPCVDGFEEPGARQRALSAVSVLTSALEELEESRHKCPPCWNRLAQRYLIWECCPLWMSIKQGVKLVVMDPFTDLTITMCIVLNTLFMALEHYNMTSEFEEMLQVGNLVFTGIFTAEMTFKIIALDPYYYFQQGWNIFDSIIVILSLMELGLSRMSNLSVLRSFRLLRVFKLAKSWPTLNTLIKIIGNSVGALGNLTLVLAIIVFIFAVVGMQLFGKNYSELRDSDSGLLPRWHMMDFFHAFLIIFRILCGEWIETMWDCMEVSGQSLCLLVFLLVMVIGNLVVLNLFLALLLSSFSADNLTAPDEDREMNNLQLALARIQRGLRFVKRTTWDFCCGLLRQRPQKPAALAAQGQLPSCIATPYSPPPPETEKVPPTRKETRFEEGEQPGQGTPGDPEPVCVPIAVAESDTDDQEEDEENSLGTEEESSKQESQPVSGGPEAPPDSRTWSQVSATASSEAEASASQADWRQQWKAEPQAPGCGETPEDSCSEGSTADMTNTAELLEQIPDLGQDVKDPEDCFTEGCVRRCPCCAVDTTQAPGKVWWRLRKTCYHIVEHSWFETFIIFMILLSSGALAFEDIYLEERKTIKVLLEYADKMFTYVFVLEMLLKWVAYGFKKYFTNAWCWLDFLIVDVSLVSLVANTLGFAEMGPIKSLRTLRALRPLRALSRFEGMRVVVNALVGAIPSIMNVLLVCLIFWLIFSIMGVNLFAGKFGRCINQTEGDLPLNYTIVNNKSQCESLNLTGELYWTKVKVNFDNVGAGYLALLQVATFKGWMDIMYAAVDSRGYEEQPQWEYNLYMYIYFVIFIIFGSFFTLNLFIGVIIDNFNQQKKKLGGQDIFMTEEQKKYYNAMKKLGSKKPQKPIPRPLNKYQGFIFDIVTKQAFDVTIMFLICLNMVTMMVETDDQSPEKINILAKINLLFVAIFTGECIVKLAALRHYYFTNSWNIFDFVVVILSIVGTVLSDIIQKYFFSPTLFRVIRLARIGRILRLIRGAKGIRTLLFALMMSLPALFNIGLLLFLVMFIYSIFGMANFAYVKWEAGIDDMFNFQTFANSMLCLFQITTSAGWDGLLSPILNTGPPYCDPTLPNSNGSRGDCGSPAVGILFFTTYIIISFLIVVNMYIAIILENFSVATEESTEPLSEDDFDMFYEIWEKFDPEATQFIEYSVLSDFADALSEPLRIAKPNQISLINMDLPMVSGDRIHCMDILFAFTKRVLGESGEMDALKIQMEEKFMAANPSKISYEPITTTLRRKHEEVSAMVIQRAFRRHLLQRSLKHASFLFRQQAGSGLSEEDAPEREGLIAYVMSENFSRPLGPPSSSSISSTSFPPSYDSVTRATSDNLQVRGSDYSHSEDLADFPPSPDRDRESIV

Structure (SMILES): Cc1c(N2CCC3(CCC3)C2)nn(CC(=O)N2CCc3c(N4CCOCC4)cccc32)c(=O)c1C [Example 226]
activation at 10 µM (human Nav1.1; [1]): 319%
activation at 10 µM (human Nav1.5; [2]): 71%

Structure (SMILES): Cc1nc2cc(NC(=O)Cn3nc(N4CCC(C)CC4)ccc3=O)ccc2s1 [Example 88]
Nav1.1 current amplification rate (%) (human Nav1.1; [1]): 183%
Nav1.5 current amplification rate (%) (human Nav1.5; [2]): 31%

Structure (SMILES): O=C(Cn1nc(C2=CCC(F)(F)CC2)ccc1=O)Nc1cncc(C(F)(F)F)c1 [Example 112]
activation at 10 µM (human Nav1.1; [1]): 46%
activation at 10 µM (human Nav1.5; [2]): 9%

Structure (SMILES): O=C(Cn1nc(N2CCC3(CCC3)C2)ccc1=O)N1CCc2cc(N3CCOCC3)ccc21 [Example 184]
activation at 10 µM (human Nav1.1; [1]): 35%
activation at 10 µM (human Nav1.5; [2]): 16%

Structure (SMILES): CC1CCN(c2ccc(=O)n(CC(=O)Nc3ccc4oc(N(C)C)nc4c3)n2)CC1 [Example 91]
Nav1.1 current amplification rate (%) (human Nav1.1; [1]): 93%
Nav1.5 current amplification rate (%) (human Nav1.5; [2]): 9%

Structure (SMILES): N#Cc1ccc(NC(=O)Cn2nc(N3CCCCCC3)ccc2=O)cn1 [Example 119]
activation at 10 µM (human Nav1.1; [1]): 120%
activation at 10 µM (human Nav1.5; [2]): 25%

Structure (SMILES): O=C(Cn1nc(N2CCC3(CCC3)CC2)ccc1=O)Nc1cccc(-n2ccnc2)c1 [Example 125]
activation at 10 µM (human Nav1.1; [1]): 220%
activation at 10 µM (human Nav1.5; [2]): 34%

Structure (SMILES): Cc1ncc(-c2cccc3c2CCN3C(=O)Cn2nc(C3=CCC(C)CC3)ccc2=O)cn1 (racemic) [Example 264]
Nav1.1 current amplification rate (%) (human Nav1.1; [3]): 597%
Nav1.5 current amplification rate (%) (human Nav1.5; [4]): 65%

Structure (SMILES): CC1CC=C(c2ccc(=O)n(CC(=O)N3CCOc4c(-c5cn[nH]c5)cccc43)n2)CC1 (racemic) [Example 290]
Nav1.1 current amplification rate (%) (human Nav1.1; [3]): 94%
Nav1.5 current amplification rate (%) (human Nav1.5; [4]): 4.5%

Structure (SMILES): CC1CCN(c2ccc(=O)n(CC(=O)Nc3cccc(-c4cnc[nH]4)c3)n2)CC1 [Example 171]
activation at 3 µM (human Nav1.1; [3]): 2%
activation at 3 µM (human Nav1.5; [4]): 0%

Structure (SMILES): CC1CC=C(c2ccc(=O)n(CC(=O)Nc3ccn4ccnc4n3)n2)CC1 (racemic) [Example 242]
Nav1.1 current amplification rate (%) (human Nav1.1; [1]): 97%
Nav1.5 current amplification rate (%) (human Nav1.5; [2]): 10%

Structure (SMILES): CC1(C)CCN(c2ccc(=O)n(CC(=O)N3CCc4c(-c5cccnc5)cccc43)n2)CC1 [Example 234]
activation at 1 µM (human Nav1.1; [5]): 240%
activation at 1 µM (human Nav1.5; [6]): 4%

Structure (SMILES): CC1(C)CN(c2ccc(=O)n(CC(=O)Nc3ccc4ocnc4c3)n2)CCC12CC2(F)F (stereo not shown) [Example 214]
activation at 10 µM (human Nav1.1; [1]): 64%
activation at 10 µM (human Nav1.5; [2]): -1%

Structure (SMILES): CC1CC=C(c2ccc(=O)n(CC(=O)N3CCc4c(CN5CC6CC5CO6)cccc43)n2)CC1 (mixture of isomers) [Example 278]
Nav1.1 current amplification rate (%) (human Nav1.1; [5]): 204%
Nav1.5 current amplification rate (%) (human Nav1.5; [6]): 27%

Structure (SMILES): CC1CCN(c2ccc(=O)n(CC(=O)Nc3ccc4c(c3)ncn4C)n2)CC1 [Example 98]
Nav1.1 current amplification rate (%) (human Nav1.1; [1]): 15%
Nav1.5 current amplification rate (%) (human Nav1.5; [2]): 4%

Structure (SMILES): CC1CC=C(c2ccc(=O)n(CC(=O)N3CC=C(c4ccccc4)CC3)n2)CC1 (racemic) [Example 257]
Nav1.1 current amplification rate (%) (human Nav1.1; [3]): 45%
Nav1.5 current amplification rate (%) (human Nav1.5; [4]): 0%

Structure (SMILES): O=C(Cn1nc(N2CCC3(CCC3)CC2)ccc1=O)N1CCc2cnccc21 [Example 185]
activation at 10 µM (human Nav1.1; [1]): 22%
activation at 10 µM (human Nav1.5; [2]): 2%

Structure (SMILES): O=C(Cn1nc(N2CCC3(CCC3)C2)ccc1=O)N1CCN(c2ccccc2)CC1 [Example 188]
activation at 10 µM (human Nav1.1; [1]): 30%
activation at 10 µM (human Nav1.5; [2]): -2%

Structure (SMILES): COc1cc(N2CCC3(CCC3)C2)nn(CC(=O)N2CCc3c(N4CCOCC4)cccc32)c1=O [Example 227]
activation at 3 µM (human Nav1.1; [3]): 303%
activation at 3 µM (human Nav1.5; [4]): 17%

Structure (SMILES): COc1cc(N2CCC3(CCC3)C2)nn(CC(=O)Nc2ccn3ccnc3c2)c1=O [Example 213]
activation at 10 µM (human Nav1.1; [1]): 136%
activation at 10 µM (human Nav1.5; [2]): 5%

Structure (SMILES): CC1CCN(c2ccc(=O)n(CC(=O)N3CCc4cc(N5CCOCC5)ccc43)n2)CC1 [Example 164]
activation at 10 µM (human Nav1.1; [1]): 187%
activation at 10 µM (human Nav1.5; [2]): 34%

Structure (SMILES): CC1CCN(c2ccc(=O)n(CC(=O)N3CCc4cc(N5CCOCC5)ccc43)n2)CC1 [Example 89]
Nav1.1 current amplification rate (%) (human Nav1.1; [1]): 187%
Nav1.5 current amplification rate (%) (human Nav1.5; [2]): 34%

Structure (SMILES): Cc1cc(N2CCC3(CCC3)C2)nn(CC(=O)Nc2ccc3ocnc3c2)c1=O [Example 204]
activation at 10 µM (human Nav1.1; [1]): 189%
activation at 10 µM (human Nav1.5; [2]): 8%

Second part, led by results:

Nav1.1 current amplification rate (%) (human Nav1.1; [1]): 124%
Structure (SMILES): COc1cc(C2=CCC(C(F)(F)F)CC2)nn(CC(=O)Nc2ccn3ccnc3c2)c1=O (stereo not shown) [Example 462]
Nav1.5 current amplification rate (%) (human Nav1.5; [2]): 5%

Nav1.1 current amplification rate (%) (human Nav1.1; [3]): 100%
Structure (SMILES): Cc1nc2cc(NC(=O)Cn3nc(C4=CCC(C)CC4)ccc3=O)ccn2c1C (racemic) [Example 329]
Nav1.5 current amplification rate (%) (human Nav1.5; [4]): 50%

activation at 1 µM (human Nav1.1; [5]): 183%
Structure (SMILES): CC1CC=C(c2ccc(=O)n(CC(=O)Nc3ccc4ocnc4c3)n2)CC1 (stereo not shown) [Example 531, N-(1,3-benzooxazol-5-yl)-2-[3-(4-methylcyclohex-1-en-1-yl)-6-oxopyridazin-1(6H)-yl]acetamide]
activation at 1 µM (human Nav1.5; [6]): 8%

activation at 1 µM (human Nav1.1; [5]): 58%
Structure (SMILES): Cc1cc(=O)n(CC(=O)Nc2ccn3ncnc3c2)nc1C1=CCC(C)(C)CC1 [Example 503]
activation at 1 µM (human Nav1.5; [6]): 10%

activation at 1 µM (human Nav1.1; [5]): 129%
Structure (SMILES): O=C(Cn1nc(C2=CCCC2)ccc1=O)N1CCc2c(-c3ccnnc3)cccc21 [Example 523]
activation at 1 µM (human Nav1.5; [6]): 5%

Nav1.1 current amplification rate (%) (human Nav1.1; [1]): 187%
Structure (SMILES): COc1cc(=O)n(CC(=O)Nc2ccc3ocnc3c2)nc1C1=CCC(C(F)(F)F)CC1 (stereo not shown) [Example 450]
Nav1.5 current amplification rate (%) (human Nav1.5; [2]): 5%

Nav1.1 current amplification rate (%) (human Nav1.1; [1]): 238%
Structure (SMILES): COc1ncc(C2=CCN(C(=O)Cn3nc(C4=CCC(C)CC4)ccc3=O)CC2)cn1 (racemic) [Example 400]
Nav1.5 current amplification rate (%) (human Nav1.5; [2]): 24%

Nav1.1 current amplification rate (%) (human Nav1.1; [1]): 40%
Structure (SMILES): CC1CC=C(c2ccc(=O)n(CC(=O)N3CC4(C3)CN(c3cccnc3)C4)n2)CC1 (stereo not shown) [Example 424]
Nav1.5 current amplification rate (%) (human Nav1.5; [2]): 2%

Nav1.1 current amplification rate (%) (human Nav1.1; [3]): 124%
Structure (SMILES): CC1CC=C(c2ccc(=O)n(CC(=O)Nc3ccc4oc(C(C)(C)O)nc4c3)n2)CC1 (racemic) [Example 327]
Nav1.5 current amplification rate (%) (human Nav1.5; [4]): 9%

Nav1.1 current amplification rate (%) (human Nav1.1; [1]): 87%
Structure (SMILES): CC1(C)CC=C(c2ccc(=O)n(CC(=O)N3CCN(c4ccccn4)CC3)n2)CC1 [Example 439]
Nav1.5 current amplification rate (%) (human Nav1.5; [2]): −4%

Nav1.1 current amplification rate (%) (human Nav1.1; [3]): 314%
Structure (SMILES): CC1CC=C(c2ccc(=O)n(CC(=O)N3CCc4c(C5CN(C6CCOC6)C5)cccc43)n2)CC1 (racemic) [Example 305]
Nav1.5 current amplification rate (%) (human Nav1.5; [4]): 117%

Nav1.1 current amplification rate (%) (human Nav1.1; [3]): 345%
Structure (SMILES): O=C(Cn1nc(C2=CCC3(CC2)CC3(F)F)ccc1=O)N1CCc2c(N3CCOCC3)cccc21 (racemic) [Example 478]
Nav1.5 current amplification rate (%) (human Nav1.5; [4]): 23%

Nav1.1 current amplification rate (%) (human Nav1.1; [3]): 404%
Structure (SMILES): CC1(C)CC=C(c2ccc(=O)n(CC(=O)N3CCc4c(C5CN(C6COC6)C5)cccc43)n2)CC1 [Example 438]
Nav1.5 current amplification rate (%) (human Nav1.5; [4]): 25%

activation at 10 µM (human Nav1.1; [1]): 24%
Structure (SMILES): CC1(C)CC=C(c2ccc(=O)n(CC(=O)N3CCN(c4cccnc4)CC3)n2)C1 [Example 508]
activation at 10 µM (human Nav1.5; [2]): -3%

Nav1.1 current amplification rate (%) (human Nav1.1; [1]): 337%
Structure (SMILES): Cc1cc(=O)n(CC(=O)Nc2ccn3ccnc3c2)nc1C1=CCC(C)(C)CC1 [Example 461]
Nav1.5 current amplification rate (%) (human Nav1.5; [2]): 50%

Nav1.1 current amplification rate (%) (human Nav1.1; [1]): 469%
Structure (SMILES): COc1cc(=O)n(CC(=O)N2CCN(c3cncc(F)c3)CC2)nc1C1=CCC(C)(C)CC1 [Example 490]
Nav1.5 current amplification rate (%) (human Nav1.5; [2]): 25%

activation at 1 µM (human Nav1.1; [5]): 143%
Structure (SMILES): O=C(Cn1nc(C2=CCCC2)ccc1=O)N1CCc2c(-c3cccnc3)cccc21 [Example 524]
activation at 1 µM (human Nav1.5; [6]): 5%

Nav1.1 current amplification rate (%) (human Nav1.1; [3]): 244%
Structure (SMILES): COc1ncc(N2CCN(C(=O)Cn3nc(C4=CCC(C)CC4)ccc3=O)CC2)cc1F (stereo not shown) [Example 409]
Nav1.5 current amplification rate (%) (human Nav1.5; [4]): 11%

Source: US20220347175A1, “PYRIDAZINONE DERIVATIVE” (Sumitomo Dainippon Pharma Co., Ltd., priority 2018, published 2022)
